Assay results taken from patent publication US20200261443A1, “Use of Anti-Ischemic Compounds in Treating Acute-On-Chronic Liver Failure” (Martin Pharmaceuticals Inc., priority 2019, published 2020).
“Also recorded” adds a separate entry of the source. Read-outs that look alike come from different tables or passages of the source.

Columns and labels:
[1] = system: patients with acute decompensation of cirrhosis and suspected ACLF; assay: Three-arm, randomized, controlled TMZ study in suspected ACLF: mortality; format: in vivo, human; conditions: for Treatment effect on Day 90 mortality: dihydrochloride
From the text: A three-arm, randomized, controlled study enrolled 133 subjects presenting with acute decompensation of cirrhosis and suspected ACLF.
Patient were divided into two groups by Child Pugh score: Class A or B (<10) and Class C (≥10).
[…] 1. The ACLF3 group was not analyzed because of the small numbers.

[2] = cited from earlier work
[3] = TMZ study in suspected ACLF: white blood cell count, platelet count, creatinine clearance; format: in vivo, human; conditions: throughout the study, TMZ versus control groups; dihydrochloride
From the text: A three-arm, randomized, controlled study enrolled 133 subjects presenting with acute decompensation of cirrhosis and suspected ACLF. Included patients presented with a prothrombin time extended by 4-6 seconds or an international normalized ratio of ≥1.5 or any degree of hepatic encephalopathy as assessed by the West Haven criteria.
In view of the overall disturbed immunlological state and the coagulopathy that is common in ACLF, it is important to asertain whether trimetazidine poses an additional risk to ACLF patients in this regard.

[4] = system: carbon tetrachloride-induced fulminant liver failure; conditions: animal model; cited from earlier work
[5] = system: non-alcoholic steatohepatitis; conditions: human population; cited from earlier work
liver lipid homeostasis = conditions: human normal obese subjects; cited from earlier work
[6] = Day 30, CP < 10, TMZ arm = TMZ + LOLA + SoC, LOLA arm = LOLA + SoC

Compound: L-ornithine-L-aspartate [LOLA]
- Alive (number of patients) [1, 6]: 10
- Alive (number of patients) ([1]; Day 30, CP ≥ 10): 16
- Alive (number of patients) ([1]; Day 90, CP < 10): 6
- Alive (number of patients) ([1]; Day 90, CP ≥ 10): 6

Compound: COc1ccc(CN2CCNCC2)c(OC)c1OC.Cl.Cl [TMZ, 1-(2,3,4-trimethoxybenzyl)piperazine dihydrochloride]
- Solubility in water / aqueous solution ([2]; dihydrochloride): highly soluble in water
- Solubility in water / aqueous solution ([2]; listed as dihydrochloride form of TMZ, dihydrochloride): very soluble
- Treatment effect on Day 90 mortality ([1]; ACLF1 population): drug effect was visible; also recorded: Positive results
- Treatment effect on Day 90 mortality ([1]; ACLF2 population): drug effect was visible; also recorded: Positive results
- Treatment effect on Day 90 mortality ([1]; ACLF population by EASL-CLIF criteria, worst case imputation): highly statistically significant difference; also recorded: robust effect
- Treatment effect on Day 90 mortality ([1]; AD population by EASL-CLIF criteria, worst case imputation): not even a trend towards an effect; also recorded: ineffective
- 30- and 90-day mortality ([1]; Child Pugh Class C (≥10) subjects): substantial and statistically significant reductions
- Alive (number of patients) [1, 6]: 9
- Dead (number of patients) [1, 6]: 2
- Dead (percent of patients) [1, 6]: 18%
- Alive (number of patients) ([1]; Day 30, CP ≥ 10): 20
- Dead (number of patients) ([1]; Day 30, CP ≥ 10): 5
- Dead (percent of patients) ([1]; Day 30, CP ≥ 10): 20%
- Alive (number of patients) ([1]; Day 90, CP < 10): 7
- Dead (number of patients) ([1]; Day 90, CP < 10): 4
- Dead (percent of patients) ([1]; Day 90, CP < 10): 36%
- Alive (number of patients) ([1]; Day 90, CP ≥ 10): 16
- Dead (number of patients) ([1]; Day 90, CP ≥ 10): 9
- Dead (percent of patients) ([1]; Day 90, CP ≥ 10): 36%
- Estimated creatinine clearance rate [3]: does not Affect; also recorded: no difference between the TMZ and control groups
- Platelet count / thrombocytopenia [3]: does not Affect; also recorded: not causing thrombocytopenia; also recorded: no difference between the TMZ and control groups
- White blood cell levels [3]: does not Affect; also recorded: no meaningful difference between the TMZ and control groups
- Effectiveness in fulminant liver failure [4]: effectiveness
- Effect on parameters associated with non-alcoholic steatohepatitis [5]: improve certain parameters associated with non-alcoholic steatohepatitis
- Effect on liver lipid homeostasis (liver lipid homeostasis): improve liver lipid homeostasis

Compound: COc1ccc(CN2CCNCC2)c(OC)c1OC [neutral form of TMZ, 1-(2,3,4-trimethoxybenzyl)piperazine]
- Solubility in organic environments [2]: soluble in certain organic environments
- Solubility in water / aqueous solution [2]: only sparingly soluble in aqueous solution
